According to a melting point compilation (Tetko et al.; mined from patent text by program, amines drawn as free bases though some values may be those of a salt):

| SMILES | melting point |
| --- | --- |
| CN(C)CCCNC(=O)c1ccc(-c2cnc3c(c2)N(C(=O)c2ccccc2)CCN3)cc1 | 94 °C |
| CNc1c(NCCSCc2ccc(CN(C)C)s2)c(=O)c1=O | 185 to 187 °C |
| COc1cc(C=NC2CCCCC2)c([N+](=O)[O-])cc1OC | 160 to 161 °C |
| CC(=O)OCc1cc(=O)c(Oc2ccc(Cl)cc2)c(-c2ccc(S(C)(=O)=O)cc2)o1 | 115 °C |
| COC(=O)NC(=Nc1cc(OS(=O)(=O)c2cccc(C(F)(F)F)c2)ccc1NC(N)=O)NC(=O)OC | 131 °C |
| CC1(C)OC(=O)Nc2ccc(-c3cc(Br)cc(OC(F)(F)F)c3)cc21 | 214 to 216 °C |
| CC(C)(C)OC(=O)COC1=CC(=O)c2ccccc2C1=O | 120 to 122 °C |
| C#Cc1cnc(OCCOc2ncnc(NS(=O)(=O)c3ccc(C(C)(C)C)cc3)c2-c2ccc(C)cc2)nc1 | 207 to 210 °C |
| COC(=O)Cc1ccc(C(=O)c2ccc(C)cc2)n1C | 117 to 118 °C |
| CCOC(=O)C1=C(N)NC2=C(C(=O)CCC2)C1c1nccc2ccccc12 (stereo unspecified) | 272 °C |
| CCCCCCC1(c2cc(O)c([C@@H]3CC(=O)C4CC3C4(C)C)c(O)c2)OCCO1 (stereo partly specified) | 185 to 186 °C |
| O=C1Nc2ccccc2Oc2c1[nH]c1ccccc21 | 233 to 234 °C |
| CN(Cc1c2ccccc2cc2ccccc12)C(=O)Nc1ccccc1CCc1cc(C(C)(C)C)c(O)c(C(C)(C)C)c1 | 205 to 206 °C |
| COc1cccc(-n2cccn2)c1C#N | 93 to 94 °C |
| CCCn1c(=O)[nH]c2ccc(C(=O)c3ncc4ccccn34)cc2c1=O | 304 °C |
| O=C(c1ccccc1)c1ccc(NC(=O)c2cc(Cl)ccc2Cl)cc1 | 150 to 153 °C |
| Cc1ccc(C)n1C1=CC2=C(CC1)CCc1[nH]c(=O)c(=O)n(O)c12 | > 250 °C |
| Cc1[nH]cnc1CSCCNc1ncc(Cc2ccccc2)cc1C#N | 105 to 106 °C |
| O=C(Nc1ccc2c(c1)CCN(C(=O)OCc1ccccc1)C2)OCc1ccccc1 | 115 to 116 °C |
| NC(=O)CN1C(=O)C[C@@H]2CCCC[C@@H]21 (relative stereo) | 145 to 146 °C |
| O=C(Nc1ccccc1)n1cc(F)c(NCc2ccccc2F)nc1=O | 154 to 157 °C |
| O=C(Cl)CC1(c2ccccc2)C(=O)Oc2ccc(Cl)cc21 (stereo unspecified) | 107 °C |
| CC(C)C[C@@H](O)CC(=O)O | 86 °C |
| COc1ccc(-c2c(CO)[nH]c3cc(OC)c(OC)cc23)cc1 | 169 to 170 °C |

| SMILES | melting point |
| --- | --- |
| Cn1ccc(NC(=O)Nc2cccc3c2C2CCCCN2C3=O)n1 (stereo unspecified) | 233 °C |
| CCc1nc2c(C)cc(C)nc2n1Cc1ccc(NCC2CCNCC2)cc1 | 165 to 168 °C |
| C=CCN/C(=C1/Sc2ccccc2C1=O)c1ccccc1 | 104 to 106 °C |
| Cc1c(O)cccc1C(=O)N[C@@H](Cc1ccccc1)[C@H](O)C(=O)N1CSC(C)(C)[C@H]1C(=O)N[C@H]1CCSc2ccccc21 | 125 to 127 °C |
| COc1ccc(F)cc1C(C)(C)c1cc(Cl)ccc1O | 97 °C |
| C=Cn1cc(C(=O)O)c(=O)c2cc(F)c(N3CCN(C)CC3)cc21 | 242 °C |
| NNC(=O)c1ccccc1-c1ccc([N+](=O)[O-])cc1 | 194 to 196 °C |
| COc1ccc(-c2cnccn2)cc1 | 86 to 87 °C |
| CCCCSc1nc2c(cc1C#N)C(=O)CC(C)(C)C2 | 50 to 52 °C |
| CN(c1ccc2ccccc2c1)S(=O)(=O)C(Cc1ccccc1)C(=O)NC(Cc1ccc(C#N)cc1)C(=O)N1CCCC1 (stereo unspecified) | 186 °C |
| COc1ccc(-c2cc(=O)n(C)c(OC(C)C)n2)cc1OC | 124 to 126 °C |
| O=C(CCc1ccccc1)c1c(O)c2cccnc2n(-c2ccccc2)c1=O | 233 to 234 °C |
| COc1cccc(CN2CCc3cc(O)c(OC)cc3C2C)c1 (stereo unspecified) | 97 to 99 °C |
| CCCC(=O)Nc1nc2ccccc2n2c(CC)nnc12 | 185 to 187 °C |
| Cn1ncc2c1CCCc1cn[nH]c1-2 | 153 to 155 °C |
| CS(=O)(=O)c1ccc(-c2cnn(-c3cccc(Cl)c3)c(=O)c2Oc2ccccc2)cc1 | 205 to 207 °C |
| N=C(c1ccccc1)c1ccccc1N | 48 °C |
| CNC(=O)c1cnn(-c2ccc(Br)cc2)c1C#N | 240 to 241 °C |
| COc1ccc([C@H]2C=CN(S(=O)(=O)c3ccc(OC)cc3)C(=O)[C@H]2CCC2C=CC=CC2=O)cc1 (stereo partly specified) | 159 to 161 °C |
| c1cc(NC2=NCCN2)ccc1Cc1ccc(OC2CCOCC2)cc1 | 169 to 170 °C |
| CN(C)S(=O)(=O)c1ccc(Oc2ccc(S(C)(=O)=O)cc2)cc1 | 128 to 130 °C |
| Cn1c(C(=O)O)cc(=O)c2cc(O)c(=O)c(Br)cc21 | > 250 °C |
| CN(C)C(=O)Sc1ccc(C(=O)c2ccccc2C#N)cc1 | 112 °C |
| CCCOc1ncc(NC(=O)CC(=O)O)cc1-c1nc2c(CCC)nn(C)c2c(=O)[nH]1 | 261 to 262 °C |

| SMILES | melting point |
| --- | --- |
| Cc1ccc(S(=O)(=O)Oc2ccc(C(=O)c3c(-c4ccccc4)cc4ccccn34)cc2)cc1 | 177 to 178 °C |
| CCNC(=N)Nc1nc2ccc(OC(F)(F)F)cc2s1 | 127 to 129 °C |
| NS(=O)(=O)c1cccc(-c2cccc(-c3nc(-c4ccc(F)c(F)c4)cc(C(F)(F)F)n3)c2)c1 | 211 °C |
| C=C(C)Cn1c(=O)n(C)c(=O)c2c(Sc3ccccn3)n(Cc3cccc4ccccc34)nc21 | 118 to 120 °C |
| Cc1nc2c(c3c1[nH]c1ccccc13)CCC(C)(C)C2 | 241 to 243 °C |
| c1ccc(-n2c(Cc3ccccn3)nc3ccccc32)cc1 | 106 to 108 °C |
| CN(C)C1(Cc2ccccc2)CC=C(c2[nH]c3ccccc3c2CCc2ccncc2)CC1 (stereo unspecified) | 154 to 157 °C |
| Cc1cccc(CC(=O)NC(C)C)c1NC(=O)c1cc(C(F)(F)F)nn1-c1ncccc1Cl | 206 to 207 °C |
| Fc1ccc2[nH]cc(C3=CCN(CC4COc5ccc6c(c5O4)OCCC6)CC3)c2c1 (stereo unspecified) | 146 to 148 °C |
| O=C(O)COc1cccc(-c2ccccc2OC2OC(CO)C(O)C(O)C2O)c1 (stereo unspecified) | 58 to 60 °C |
| O=C(NC[C@H]1CN(c2ccc(C3C=CS(=O)(=O)CC3)cc2)C(=O)O1)C(Cl)Cl (stereo partly specified) | 159 to 161 °C |
| CS(=O)(=O)c1ccc(Oc2ccc(Cl)c(Cl)c2)nc1C#N | 168 to 170 °C |
| CN(C)C1C(O)CC2C3CCc4cc(O)ccc4C3CCC21C (stereo unspecified) | 240 to 242 °C |
| CCCCc1nc2c(N)nc3ccccc3c2n1CCCCNS(=O)(=O)c1ccccc1 | 75.5 to 79 °C |
| COC(=O)CNc1ccc(F)c(F)c1 | 71 to 73 °C |
| CN(C)CC(Cc1ccccc1)NC(=O)c1ccccc1 (stereo unspecified) | 110 °C |
| N#Cc1ccc(Cc2ccc(OCc3ccccc3)cc2)cc1 | 110 to 111 °C |
| CCCc1c(OCCCCC(=O)c2ccc3cc(O)c(O)cc3c2)ccc(C(=O)O)c1O | 213 to 214 °C |
| COCCS(=O)(=O)c1ccccc1S(N)(=O)=O | 120 to 123 °C |
| CCC(C)(C)Nc1c(N(Cc2ccc(Cl)cc2Cl)C(C)=O)c(=O)c1=O | 114 to 116 °C |
| CCOC(=O)c1cc2c3ccccc3n(CCCc3ccccc3)c2cn1 | 140 to 142 °C |
| CC(=O)NC(C)COc1c(C)cccc1C (stereo unspecified) | 85 to 85.8 °C |
| CC(C)(C)OC(=O)N1CCC(C(c2cc(F)ccc2F)S(=O)(=O)c2ccc(Cl)cc2)CC1 (stereo unspecified) | 193 to 196 °C |
